1 compound from patent US11773421B2, “Method for producing fructose-6-phosphate from dihydroxy acetone phosphate and glyceraldehyde-3-phosphate” (Global Bioenergies, priority 2018, dated 2023) can be followed below.

The target of assay [1] is fructose bisphosphatase (Escherichia coli, UniProt P0A993). Briefly: Impact of AMP concentration on fructose bisphosphatase activity. Type of assay: biochemical. To be noted: AMP several concentrations; 1 mM F1,6bisP, 0.2 mg/ml FBP enzyme, 30° C., NADPH formation at 340 nm; FIG. 1. How it is done: (§1) A series of tests was conducted in order to determine if AMP has an inhibitory effect on the enzymatic activity of fructose-6-phosphate aldolase and/or fructose bisphosphatase. […] Chem Cat Chem, Wiley, 7:1871-1879 (2015).

Assay [2] deals with T1, FsaA A129S (Escherichia coli, UniProt P78055, A129S).
T1 construct: made in house; host or cells: E. coli BL21(DE3), ASKA collection plasmid
Kind of assay: Impact of AMP concentration on fructose-6-phosphate aldolase activity of FsaA A129S. The format is biochemical, E. coli. To be noted: AMP several concentrations; 200 mM DHA, 3 mM D,L-G3P, 0.4 mg/ml FsaA A129S, 30° C., NADPH formation at 340 nm; FIG. 2. How it is done: as §1

T1 sequence (P78055 whole entry A129S): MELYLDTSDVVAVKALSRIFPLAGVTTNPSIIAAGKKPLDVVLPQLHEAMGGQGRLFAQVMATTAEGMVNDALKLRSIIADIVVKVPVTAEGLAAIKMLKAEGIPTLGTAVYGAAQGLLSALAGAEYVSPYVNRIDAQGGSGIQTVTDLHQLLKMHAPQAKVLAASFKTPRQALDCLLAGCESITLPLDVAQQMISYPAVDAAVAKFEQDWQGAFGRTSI
fructose bisphosphatase, sequence (P0A993 whole entry): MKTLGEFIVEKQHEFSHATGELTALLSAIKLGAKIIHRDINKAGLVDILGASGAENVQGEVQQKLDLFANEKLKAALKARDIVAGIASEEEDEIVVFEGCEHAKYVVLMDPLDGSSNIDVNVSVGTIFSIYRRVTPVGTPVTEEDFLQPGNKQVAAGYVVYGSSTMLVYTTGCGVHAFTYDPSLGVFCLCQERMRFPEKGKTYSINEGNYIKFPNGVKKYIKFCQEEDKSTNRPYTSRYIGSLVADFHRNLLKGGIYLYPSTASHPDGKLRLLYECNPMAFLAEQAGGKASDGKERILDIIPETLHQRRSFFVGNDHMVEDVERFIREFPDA

With `Nc1ncnc2c1ncn2[C@@H]1O[C@H](COP(=O)(O)O)[C@@H](O)[C@H]1O` [AMP], the “impact of AMP on fructose bisphosphatase activity” value in assay [1] is on record as “strong inhibitory impact”. Further, the “inhibitory effect of AMP on fructose-6-phosphate aldolase activity” value in assay [2] was “No inhibitory effect”.
